Paper PMC8126888 (RSC Medicinal Chemistry, 2020)
Read-outs that look alike come from different tables or passages of the source.

What was measured:
in vitro [1] = conditions: PAMPA
[2] = test system: Trypanosoma cruzi, Tulahuen CL2, beta-galactosidase strain; experiment: microbe, parasite or virus in culture; conditions: MRC5, read-out: T. cruzi Tulahuen C4 (LacZ) IC50
[3] = test system: primary peritoneal mouse macrophages (PMM); experiment: cells; conditions: Macrophage, read-out: PMM IC50
in vitro [4] = conditions: human, microsomes, pH 7.4, HLM CLint, human liver microsomes
[5] = test system: Leishmania infantum MHOM/MA(BE)/67/ITMAP263 intracellular amastigotes; experiment: microbe, parasite or virus in culture; conditions: Macrophage, in Mus musculus
in vitro [6] = conditions: human
physchem = conditions: HPLC, Ascentis Express RP Amide column, pH 7.4, eLogD, experimental
in vitro [7] = conditions: mouse, microsomes, pH 7.4, MLM CLint, mouse liver microsomes
[8] = read-out: L. Inf. pIC50, from L. infantum intracellular amastigote IC50 (converted)
[9] = read-out: L. infantum MHOM/MA(BE)/67/ITMAP263 intracellular amastigotes IC50, intracellular amastigotes

Structure (SMILES) | Papp (in vitro [1]) | IC50 [2] | IC50 [3] | microsomal CLint at 0.5 μM (in vitro [4]) | IC50 [5, 8] | IC50 [5, 9] | CC50 at 3 days (in vitro [6]) | chromatographic logD (physchem) | microsomal CLint at 0.5 μM (in vitro [7])
CN(C)CCN(Cc1ccccc1)S(=O)(=O)c1ccc(NC(=O)CCCO)cc1 [DNDI0003368293] | 0.21 ×10⁻⁶ cm/s | > 64 µM | > 64 µM | < 23 µL/min/mg | > 64 µM | > 64 µM | > 64 µM | 2.9 | 
CN(C)CCN(Cc1ccccc1)S(=O)(=O)c1ccc(N2C(=O)CCC2=O)cc1 [DNDI0003368291] | 1.64 ×10⁻⁶ cm/s | > 64 µM | > 64 µM | < 23 µL/min/mg | > 64 µM | > 64 µM | > 64 µM | 2.5 | 
COc1ccc(C(=O)N2CCCC2)cc1S(=O)(=O)N(Cc1ccccc1)Cc1ccccc1 [DNDI0003368297] | 4.91 ×10⁻⁶ cm/s | > 64 µM | 32 µM | 796 µL/min/mg | 0.49 µM | 0.48 µM | > 64 µM | 4.1 | 
O=S(=O)(c1cc(F)ccc1F)N(CCO)Cc1ccccc1 [DNDI0003368289] | 15.7 ×10⁻⁶ cm/s | 47.2 µM | > 64 µM | < 23 µL/min/mg | > 64 µM | > 64 µM | > 64 µM | 3.2 | 
CNC(=O)c1ccc(OC)c(S(=O)(=O)N(Cc2ccccc2)Cc2ccccc2)c1 [DNDI0003368298] | 10.4 ×10⁻⁶ cm/s | > 64 µM | 50.8 µM | 316 µL/min/mg | 0.708 µM | 0.71 µM | 4.87 µM | 3.8 | 
O=S(=O)(c1cc(F)ccc1F)N(Cc1ccccc1)C(CO)CO [DNDI0003369448] | 11.2 ×10⁻⁶ cm/s | 31.6 µM | > 64 µM | < 23 µL/min/mg | 57.5 µM | 57 µM | > 64 µM | 2.9 | 97 µL/min/mg
CN(C)CCN(Cc1ccccc1)S(=O)(=O)c1ccccc1S(C)(=O)=O [DNDI0003367255] | 2.04 ×10⁻⁶ cm/s | > 64 µM | > 64 µM |  | > 64 µM | > 64 µM | > 64 µM | 2.6 | 
CN(C)CCN(Cc1ccccc1)S(=O)(=O)c1ccc(N)cc1 [DNDI0003368290] | 0.88 ×10⁻⁶ cm/s | > 64 µM | > 64 µM | 56 µL/min/mg | > 64 µM | > 64 µM | > 64 µM | 2.5 | 
COc1ccc(OC)c(S(=O)(=O)N(CCN2CCOCC2)Cc2ccccc2)c1 [DNDI0003368294] | 5.27 ×10⁻⁶ cm/s | > 64 µM | > 64 µM | 227 µL/min/mg | 9.12 µM | 9.06 µM | > 64 µM | 3.4 | 
COc1ccc(S(=O)(=O)N(Cc2ccccc2)Cc2ccccc2)cc1 [DNDI0003367309] | 1 ×10⁻⁶ cm/s | > 64 µM | > 64 µM | 184 µL/min/mg | 45.7 µM | 45.4 µM | > 64 µM |  | 2410 µL/min/mg
O=S(=O)(NC(CO)Cc1ccccc1)c1cc(F)ccc1F (centres unmarked) [DNDI0003368459] | 10.6 ×10⁻⁶ cm/s | > 64 µM | > 64 µM | 42 µL/min/mg | > 64 µM | > 64 µM | > 64 µM | 2.8 | 274 µL/min/mg
O=S(=O)(NCc1ccc(F)cc1)c1cccnc1OCc1ccccc1 [DNDI0003369120] | 12.8 ×10⁻⁶ cm/s | 12.7 µM | 32 µM | 2740 µL/min/mg | 8.51 µM | 8.42 µM | 20.2 µM | 4 | 2750 µL/min/mg
COc1ccc(OC)c(S(=O)(=O)N(Cc2ccccc2)C2CCCN(C(C)=O)C2)c1 (centres unmarked) [DNDI0003367307] | 16.4 ×10⁻⁶ cm/s | 54.3 µM | > 64 µM |  | > 64 µM | > 64 µM | > 64 µM | 3.3 | 
O=S(=O)(NC(CO)Cc1ccccc1)c1ccccc1Br (centres unmarked) [DNDI0003369449] | 17.4 ×10⁻⁶ cm/s | 33.4 µM | > 64 µM | 244 µL/min/mg | > 64 µM | > 64 µM | > 64 µM | 3 | 1370 µL/min/mg
COC(=O)[C@H](CO)NS(=O)(=O)c1cc(Cl)ccc1OC [DNDI0003369004] | 9.07 ×10⁻⁶ cm/s | > 64 µM | > 64 µM | 112 µL/min/mg | > 64 µM | > 64 µM | > 64 µM | 1.8 | 230 µL/min/mg
CCOCCOc1ncccc1S(=O)(=O)NCc1ccc(F)cc1 [DNDI0003369119] | 23.8 ×10⁻⁶ cm/s | > 64 µM | > 64 µM | 2210 µL/min/mg | 33.1 µM | 33.3 µM | > 64 µM | 3.2 | 1530 µL/min/mg
COc1ncccc1S(=O)(=O)N(Cc1ccc(F)cc1)Cc1ccccn1 [DNDI0003370084] | 27.4 ×10⁻⁶ cm/s | 33.6 µM | > 64 µM | 696 µL/min/mg | 7.41 µM | 7.39 µM | > 64 µM | 3.5 | 4620 µL/min/mg
CN(C)CCOc1ccc(F)cc1S(=O)(=O)N(Cc1ccc(F)cc1)Cc1ccc(F)cc1 [DNDI0003371161] | 0.06 ×10⁻⁶ cm/s | 2.17 µM | 8 µM | 214 µL/min/mg | 2.19 µM | 2.19 µM | 7.62 µM | 4.9 | 845 µL/min/mg
C=C(c1ccc(F)cc1)N(Cc1ccccc1)S(=O)(=O)c1cc(Cl)ccc1O [DNDI0003371156] | 1.41 ×10⁻⁶ cm/s | 2.26 µM | 8 µM |  | 7.41 µM | 7.44 µM | 3.61 µM | 5.1 | 
COc1ccc(OC)c(S(=O)(=O)N(CCn2nc(C)cc2C)Cc2ccccc2)c1 [DNDI0003367308] | 10.9 ×10⁻⁶ cm/s | 8.09 µM | > 64 µM | 2270 µL/min/mg | 6.17 µM | 6.23 µM | 51 µM | 4.1 | 3100 µL/min/mg
COc1ccc(OC)c(S(=O)(=O)N(Cc2ccc(F)cc2)Cc2ccccn2)c1 [DNDI0003368394] | 60.1 ×10⁻⁶ cm/s | 20.9 µM | > 64 µM | 151 µL/min/mg | 0.977 µM | 0.97 µM | > 64 µM | 2.7 | 344 µL/min/mg
COc1ccc(Cl)cc1S(=O)(=O)N(CC(=O)c1ccc(F)cc1)Cc1ccccc1 [DNDI0003371155] | 0.24 ×10⁻⁶ cm/s | > 64 µM | 45.2 µM |  | 41.7 µM | 41.8 µM | > 64 µM | 4.8 | 1900 µL/min/mg
O=C(CN(Cc1ccccc1)S(=O)(=O)c1cc(F)ccc1F)c1ccc(F)cc1 [DNDI0003371157] | 0.83 ×10⁻⁶ cm/s | > 64 µM | > 64 µM | 756 µL/min/mg | > 64 µM | > 64 µM | > 64 µM | 4.6 | 1380 µL/min/mg
CCCCOc1ncccc1S(=O)(=O)NCc1ccc(F)cc1 [DNDI0003368396] | 14.9 ×10⁻⁶ cm/s | 29.6 µM | > 64 µM | 1650 µL/min/mg | 8.71 µM | 8.73 µM | > 64 µM | 3.8 | 
COC(=O)C(Cc1ccccc1)NS(=O)(=O)c1ccccc1Br (centres unmarked) [DNDI0003369003] | 20.4 ×10⁻⁶ cm/s | 58 µM | > 64 µM |  | > 64 µM | > 64 µM | > 64 µM | 3.4 | 
COc1ccc(C#N)cc1S(=O)(=O)N(Cc1ccc(F)cc1)Cc1ccccn1 [DNDI0003370083] | 11.9 ×10⁻⁶ cm/s | 28.9 µM | > 64 µM | 694 µL/min/mg | 3.16 µM | 3.19 µM | > 64 µM | 3.6 | 1840 µL/min/mg
O=S(=O)(c1ccccc1Br)N(Cc1ccccc1)C(CO)Cc1ccccc1 (centres unmarked) [DNDI0003369450] | 2.82 ×10⁻⁶ cm/s | 5.54 µM | > 64 µM | 1560 µL/min/mg | > 64 µM | > 64 µM | 21.3 µM | 4.6 | 2180 µL/min/mg
O=S(=O)(NCc1ccc(F)cc1)c1cccnc1NCCN1CCOCC1 [DNDI0003369121] | 1.85 ×10⁻⁶ cm/s | > 64 µM | > 64 µM | 1850 µL/min/mg | > 64 µM | > 64 µM | > 64 µM | 3.1 | 1950 µL/min/mg
COc1ccc(CN2CCOCC2)cc1S(=O)(=O)N(Cc1ccc(F)cc1)Cc1ccc(F)cc1 [DNDI0003370082] | 0.74 ×10⁻⁶ cm/s | 1.56 µM | > 64 µM | 49 µL/min/mg | 0.525 µM | 0.52 µM | > 64 µM |  | 3200 µL/min/mg
